The molecules below were run on T. cruzi Tulahuen in NIH-3T3, beta-gal fluorescence, 4 d (assay: anti-Chagas amastigote proliferation inhibitors – cell-based (AID 1159559)).
CC(C)Nc1nccc(-c2c(-c3ccc(F)cc3)ncn2C2CCOCC2)n1 gave an IC50 of 250 nM.
Molecule CS(=O)(=O)c1cccc(CNC(=O)c2cncc(N3CCN(c4ccc(F)cc4)CC3)c2)c1 has an IC50 of 630 nM.
With CC(Cn1ccnc1)NC(=O)C1CC1c1cccc(Cl)c1Cl (configuration not stated) the IC50 was 130 nM.
Molecule O=C(N[C@H](CO)c1ccccc1)c1ccc(-c2c[nH]c3nccc(C(F)(F)F)c23)s1 has an IC50 of 7900 nM.
With CC(CNS(=O)(=O)c1ccc(OC(F)F)cc1)c1ccc(NC(=O)c2ccncc2)cc1 (configuration not stated) the IC50 was 200 nM.
O=C(Cc1ccccc1)Nc1ccccc1C(=O)Nc1nccs1 gave an IC50 of 40000 nM.
For O=C(c1ccc(OCCCc2cnc[nH]2)cc1)C1CC1, the IC50 was 320 nM.
With C[C@@H](Oc1cc(-n2cnc3ccc(C(O)CO)cc32)sc1C(N)=O)c1ccccc1C(F)(F)F (some centres not stated) the IC50 was 5000 nM.
In the case of CN(Cc1cccnc1)Cc1ccc(N2CCN(C(=O)C3(c4ccc(Cl)cc4)CC3)CC2)nc1, the IC50 is reported as 500 nM.
With Cc1ccc(Nc2nc(-c3ccccn3)cc(N3CCCC(O)C3)n2)cc1 (configuration not stated) the IC50 was 500 nM.
Clc1ccc(CN2CCN(C3=NCCN3)CC2)cc1Cl showed an IC50 of 1300 nM.
CN(C)Cc1cccc(Nc2nccc(-c3ccc(NCCN)c(C#N)c3)n2)c1 was tested, and the IC50 was 1000 nM.
CCCN(Cc1ccc(OC)c(OC)c1)Cc1cc(=O)c2c(C)cc(C)cc2[nH]1 gave an IC50 of 2000 nM.
Cc1ccc(C)c(CN2C(=O)NC3(CCc4ccccc43)C2=O)c1 (configuration not stated) gave an IC50 of 25000 nM.
Molecule COc1ccc(S(=O)(=O)Nc2ccccc2OC)cc1NC(=O)CCCc1c[nH]c2ccccc12 has an IC50 of 1600 nM.
CNc1cncc(C2CCCN2C(=O)Cc2ccc3ccccc3c2)n1 (configuration not stated) gave an IC50 of 79 nM.
For Fc1ccccc1N1C[C@H]2CCN(c3cccnc3)C[C@H]2C1, the IC50 was 200 nM.
Cc1ccc2onc(Nc3ccnc(Nc4cccc(S(C)(=O)=O)c4)n3)c2c1 showed an IC50 of 4000 nM.
Molecule CS(=O)(=O)NC1CCC(Oc2cc3cnccc3cc2-c2ccsc2)CC1 (configuration not stated) has an IC50 of 130 nM.
Molecule CC1CCCCN1C(=O)NCCc1coc(-c2ccc(F)cc2)n1 (configuration not stated) has an IC50 of 400 nM.
Work on O=c1ccc2ccc(F)c3c2n1C[C@H]3CN1CCC(NCc2cc3ccccc3o2)CC1 yielded an IC50 of 400 nM.
In the case of CC1=C(C(=O)Nc2ccc(Cl)cc2)C(c2ccncc2)n2ncc(C(=O)Nc3ccccc3)c2N1 (configuration not stated), the IC50 is reported as 20 nM.
With Cc1ccnc(NS(=O)(=O)c2ccc(NC(=O)c3ccc([N+](=O)[O-])s3)cc2)n1 the IC50 was 2000 nM.
CNc1cc(Cn2c(C(=O)c3cc(C)cc(Cl)c3)c(C(C)C)c(=O)[nH]c2=O)ccn1 showed an IC50 of 40 nM.
Work on CCN(CC)S(=O)(=O)c1ccc(C(=O)Nc2cc(C)nn2-c2nc(C)c(C)c(=O)[nH]2)cc1 yielded an IC50 of 630 nM.
For Nc1cc(-c2ccc3ncnc(N4CCOCC4)c3c2)cnc1N, the IC50 was 1600 nM.
Work on Cc1nn(-c2nc3ccccc3s2)c2c1C(c1ccc(OCC(N)=O)cc1)SCC(=O)N2 (configuration not stated) yielded an IC50 of 5000 nM.
Molecule N#CN1CC[C@@H](NC(=O)Nc2ccccc2Oc2ccccc2)C1 has an IC50 of 5000 nM.
CC(Cn1ccnc1)NC(=O)C=Cc1ccc(Cl)cc1 (configuration not stated) showed an IC50 of 400 nM.
In the case of O=C1OCc2ccc(Nc3nccc(-c4cnn5ncccc45)n3)cc21, the IC50 is reported as 25 nM.
CN(Cc1nc2ccc(C(=O)NCC3CCCCC3)cc2[nH]1)C1CCCc2cccnc21 (configuration not stated) was tested, and the IC50 was 500 nM.
Cc1ccccc1CNC(=O)CN(Cc1ccccn1)Cc1ccccn1 was tested, and the IC50 was 5000 nM.
Work on COc1ccc(-c2cnc(C)o2)cc1S(=O)(=O)Nc1ccc(C)cc1C yielded an IC50 of 2500 nM.
In the case of Cc1ccc(NC(=O)c2ccc([N+](=O)[O-])s2)cc1S(=O)(=O)N1CCOCC1, the IC50 is reported as 200 nM.
COc1ccc(-c2ccc3nnc(-c4ccc(O)c(OC)c4)n3c2)cn1 was tested, and the IC50 was 1300 nM.
With N#Cc1cccc(Cc2cc(Nc3cc(C4CC4)[nH]n3)nc(N3CC[C@H]3C(N)=O)n2)c1 the IC50 was 400 nM.
COc1cnc2ccc(=O)n(CCN3CCC(NC(=O)Cc4ccc(Cl)c(Cl)c4)CC3)c2c1 gave an IC50 of 320 nM.
For O=C(CN1CCN(c2ccccn2)CC1)Nc1cc(S(=O)(=O)N2CCCCCC2)ccc1Cl, the IC50 was 10000 nM.
With O=C(Cn1cnc2cc([N+](=O)[O-])ccc2c1=O)NCCc1ccc(Cl)cc1Cl the IC50 was 630 nM.
With Cn1nc([N+](=O)[O-])nc1N1CCCCC1 the IC50 was 1300 nM.
Cc1cc2cncn2c(C2CCCCN2C(=O)c2cccs2)n1 (configuration not stated) gave an IC50 of 25 nM.
In the case of Cc1nc2c(-c3ncn[nH]3)cc(NC(=O)Cc3ccccc3)cn2c1C, the IC50 is reported as 1000 nM.
